Results taken from patent US10611748B2, “Xanthone derivatives for the treatment of hepatitis B virus disease” (Hoffmann-La Roche Inc., priority 2017, dated 2020).

What was measured:
[1] = system: extracellular HBsAg level in HBV-infected PHH; assay: Cryopreserved primary human hepatocytes (PHH) assay, HBsAg; type: cell-based; details: Hepatitis B virus, Hepatocyte, 216 h, read-out: HBsAg IC50
Procedure: Cryopreserved PHH (BioreclamationIVT, Lot YJM) was thawed at 37° C. and gently transferred into pre-warmed InVitroGRO HT medium (BioreclamationIVT, Cat. S03317). The mixture was centrifuged at 70 relative centrifugal force (RCF) for 3 minutes at RT, and the supernatant was discarded. Pre-warmed InVitroGRO CP medium (BioreclamationIVT, Cat # S03316) was added to the cell pellet to gently re-suspend cells. The cells were seeded at the density of 5.8×10^4 cells per well to collagen I coated 96-well plate (Gibco, Cat. A1142803) with the InVitroGRO CP medium. All plates were incubated at 37° C. with 5% CO2 and 85% humidity.
At 20 hours after plating, the medium was changed to PHH culture medium (Dulbecco's Modified Eagle Medium (DMEM)/F12 (1:1) (Gibco, Cat. 11320-033), 10% fetal bovine serum (Gibco Cat. 10099141), 100 U/mL penicillin, 100 μg/mL streptomycin (Gibco, Cat. 151401-122), 5 ng/mL human epidermal growth factor (Invitrogen Cat. PHG0311L), 20 ng/mL dexamethasone (Sigma, Cat. D4902) and 250 ng/mL human recombinant insulin (Gibco, Cat. 12585-014)). And the cells were incubated at 37° C. with 5% CO2 and 85% humidity for 4 hours. The medium was then changed to pre-warmed PHH culture medium containing 4% polyethylene glycol (PEG) MW8000 (Sigma, Cat. P1458-50ML) and 1% DMSO (Sigma, Cat. D2650). 5.8×10^6 genomic equivalents of HBV were added into the medium.
At 24 hours post-infection, the cells were gently washed with PBS and refreshed with PHH culture medium supplemented with 1% DMSO, and 0.25 mg/mL Matrix gel (Corning, Cat. 356237) at 200 μL per well. All plates were immediately placed in at 37° C. CO2 incubator.
24 hours later, serial dilutions of compounds made with DMSO were further diluted with the same culture medium (PHH culture medium supplemented with 1% DMSO and 0.25 mg/mL Matrix gel as described above) before they were added to the cells to reach desired final compound concentrations and 1% DMSO concentration. The medium containing the compounds were refreshed every three days.
At 9 days post-compound treatment, extracellular HBsAg level were measured with Chemiluminescence Immuno Assay (CLIA) kit (Autobio, HBsAg Quantitative CLIA). Extracellular HBV DNA was extracted by MagNA Pure 96 system (Roche) and then determined by quantitative PCR with the following primers and probe: HBV-Forward Primer (SEQ ID NO:2): […] (5′ to 3′); HBV-Reverse Primer (SEQ ID NO:3): […](5′ to 3′); HBV-Probe: 5′+tetramethylrhodamine+SEQ ID NO:4+black hole quencher 2-3′, wherein SEQ ID NO:4 is […].
HBsAg IC50 and HBV DNA IC50 values were derived from the dose-response curve using 4 parameter logistic curve fit method.

[2] = system: extracellular HBeAg level (surrogate marker for cccDNA) in HepDES19 cells; assay: HepDES19 primary screen assay; type: cell-based, HBV; details: Hepatitis B virus, 120 h, 5 days compound incubation, HBeAg ELISA
Text: The assay was employed to primarily screen for novel cccDNA inhibitors. HepDES19 is an engineered cell line which contains a 1.1 unit length HBV genome, and pgRNA transcription from the transgene is controlled by Tetracycline (Tet). In the absence of Tet, pgRNA transcription will be induced, but HBV e antigen (HBeAg) could not be produced from this pgRNA due to the fact that the very short leader sequence before the HBeAg start codondisrupted the start codon. Only after cccDNA is formed, the missing leader sequence and start codon mutation would be restored from the 3′-terminal redundancy of pgRNA, and then HBeAg could be synthesized. Therefore, HBeAg could be used as a surrogate marker for cccDNA (Zhou, T. et al., Antiviral Res(2006), 72(2), 116-124; Guo, H. et al., J. Virol (2007), 81(22), 12472-12484).
HepDES19 cells were seeded at 2×10^6 cells per T150 flask and cultured with the culture medium (Dulbecco's Modified Eagle Medium: Nutrient Mixture F-12 (DMEM:F12, Gibco Cat. 11320-82), 10% Fetal Bovine Serum (FBS, Clontech Cat. 631101), 0.1 mM Non-Essential Amino Acids Solution (NEAA, Gibco Cat. 11140-050), 50 μg/mL Penicillin-Streptomycin (PS, Invitrogen Cat. 15140-163), 500 μg/mL Geneticin (G418, Invitrogen Cat. 10131-027) containing 3 μg/mL Tet (Sigma, Cat. 87128) for 5 days. Cells were then seeded at 4×10^6 cells per T150 in the same culture medium as described above in the absence of Tet for 8 days. Cells were then harvested and frozen at density of 2×10^6 cells per mL. For compound testing, the frozen cells were thawed and seeded into 96-well plates at a density of 6×10^4 cells per well. At 24 hrs after seeding, half log serial dilutions of compounds made with Dimethyl sulfoxide (DMSO, Sigma, Cat. D2650) were further diluted with the same culture medium as described above before they were added to the cells to reach desired final compound concentrations and 1% DMSO concentration. Plates were then incubated at 37° C. for another 5 days before measurement of HBeAg level and cell viability. Extracellular HBeAg level were measured with enzyme-linked immunosorbent assay (ELISA) kit (Shanghai Kehua Diagnostic Medical Products Co., Ltd). Cell viability was assessed using Cell Counting Kit-8 (Donjindo, Cat. CK04-20). IC50 values were derived from the dose-response curve using 4 parameter logistic curve fit method.
The compounds of the present invention were tested for their capacity to inhibit extracellular HBeAg level as described herein.

`Cc1cc2c(=O)c3cccc(Cl)c3oc2cc1N1CCC(C(=O)O)C1` (stereo not drawn) [Example 39, 1-(5-chloro-2-methyl-9-oxo-xanthen-3-yl)pyrrolidine-3-carboxylic Acid] gave an IC50 [1] of 3.18 µM and an IC50 [2] of 1.08 µM.

`COc1cc(O[C@@H]2O[C@H](CO)[C@@H](O)[C@H](O)[C@H]2O)c2c(=O)c3c(O)ccc(O)c3oc2c1` [Swertianolin, 5,8-dihydroxy-3-methoxy-1-[(2S,3R,4S,5S,6R)-3,4,5-trihydroxy-6-(hydroxymethyl)tetrahydropyran-2-yl]oxy-xanthen-9-one, reference compound] was tested, and the IC50 [1] was greater than 100 µM and the IC50 [2] was greater than 100 µM.

For `O=C(O)C1CCN(c2ccc3c(=O)c4cccc(Cl)c4sc3c2)C1` (stereo not drawn) [Example 6, 1-(5-chloro-9-oxo-thioxanthen-3-yl)pyrrolidine-3-carboxylic acid], the IC50 [1] was 5.06 µM and the IC50 [2] was 4.94 µM.

Work on `O=C(O)C1CCN(c2cc3oc4c(Cl)cccc4c(=O)c3cn2)C1` (stereo not drawn) [Example 41, 1-(6-chloro-10-oxo-chromeno[3,2-c]pyridin-3-yl)pyrrolidine-3-carboxylic Acid] yielded an IC50 [1] of 8.08 µM and an IC50 [2] of 4.04 µM.

Work on `O=C(O)C1CCN(c2cc3oc4c(Cl)cccc4c(=O)c3cc2F)C1` (stereo not drawn) [Example 42, 1-(5-chloro-2-fluoro-9-oxo-xanthen-3-yl)pyrrolidine-3-carboxylic Acid] yielded an IC50 [1] of 7.74 µM and an IC50 [2] of 1.17 µM.

For `O=c1c2ccc(N3CCOCC3)cc2oc2c(F)cccc12` [Example 29, 5-fluoro-3-morpholino-xanthen-9-one], the IC50 [2] was 2.13 µM.

With `Cc1ccc(Cl)c2oc3cc(N4CCC(C(=O)O)C4)ccc3c(=O)c12` (stereo not drawn) [Example 40, 1-(5-chloro-8-methyl-9-oxo-xanthen-3-yl)pyrrolidine-3-carboxylic Acid] the IC50 [1] was 1.69 µM and the IC50 [2] was 1.31 µM.

For `O=C(O)[C@H]1CN(c2ccc3c(=O)c4cccc(Cl)c4oc3c2)C[C@@H]1c1ccc(F)cc1` [Example 15, (3R,4S)-1-(5-chloro-9-oxo-xanthen-3-yl)-4-(4-fluorophenyl)pyrrolidine-3-carboxylic Acid], the IC50 [2] was 7.39 µM.

`O=C(O)CC1CCN(c2ccc3c(=O)c4cccc(Cl)c4oc3c2)C1` (stereo not drawn) [Example 8, 2-[1-(5-chloro-9-oxo-xanthen-3-yl)pyrrolidin-3-yl]acetic Acid] gave an IC50 [2] of 7.53 µM.

In the case of `O=C(O)C1CCN(c2cc3oc4c(Cl)cccc4c(=O)c3cc2Cl)C1` (stereo not drawn) [Example 43, 1-(2,5-dichloro-9-oxo-xanthen-3-yl)pyrrolidine-3-carboxylic Acid], the IC50 [1] is reported as 8.22 µM and the IC50 [2] is reported as 1.11 µM.

With `O=c1c2cnc(N3CCCC3)cc2oc2c(F)cccc12` [Example 45, 6-fluoro-3-pyrrolidin-1-yl-chromeno[3,2-c]pyridin-10-one] the IC50 [2] was 0.51 µM.

With `Clc1cccc2c1Oc1cc(N3CCCC3)ccc1C2C1COC1` (stereo not drawn) [Example 57, 1-[5-chloro-9-(oxetan-3-yl)-9H-xanthen-3-yl]pyrrolidine] the IC50 [2] was 7.33 µM.

For `O=c1c2ccc(N3CCC4(CNC4)C3)cc2oc2c(F)cccc12` [Example 47, 3-(2,6-diazaspiro[3.4]octan-6-yl)-5-fluoro-xanthen-9-one], the IC50 [2] was 4.77 µM.

`O=C(O)[C@H]1CN(c2ccc3c(=O)c4cccc(Cl)c4oc3c2)C[C@@H]1c1cccnc1` [Example 18, (3R,4S)-1-(5-chloro-9-oxo-xanthen-3-yl)-4-(3-pyridyl)pyrrolidine-3-carboxylic Acid] showed an IC50 [2] of 16.6 µM.

For `O=c1c2ccc(N3CCCC3)cc2oc2c(F)cc(Cl)cc12` [Example 35, 2-chloro-4-fluoro-6-pyrrolidin-1-yl-xanthen-9-one], the IC50 [2] was 16.7 µM.

`O=c1c2cc(F)c(N3CCCC3)cc2oc2c(F)cccc12` [Example 28, 2,5-difluoro-3-pyrrolidin-1-yl-xanthen-9-one] showed an IC50 [2] of 1.86 µM.

In the case of `O=c1c2ccc(N3CCCCC3)cc2oc2c(F)cccc12` [Example 9, 5-fluoro-3-(1-piperidyl)xanthen-9-one], the IC50 [2] is reported as 0.98 µM.

Compound `O=c1c2ccc(N3CCC(c4ccncc4)C3)cc2oc2c(F)cccc12` (stereo not drawn) [Example 34, 5-fluoro-3-[3-(4-pyridyl)pyrrolidin-1-yl]xanthen-9-one] has an IC50 [2] of 6.15 µM.

For `O=C(O)C1CCN(c2ccc3c(=O)c4cccc(C(F)(F)F)c4oc3c2)C1` (stereo not drawn) [Example 37, 1-[9-oxo-5-(trifluoromethyl)xanthen-3-yl]pyrrolidine-3-carboxylic Acid], the IC50 [2] was 13.4 µM.

For `O=c1c2ccc(N3CC[C@H](O)C3)cc2oc2c(Cl)cccc12` [Example 27, 5-chloro-3-[(3S)-3-hydroxypyrrolidin-1-yl]xanthen-9-one], the IC50 [2] was 1.95 µM.

Work on `CC(=O)OC(c1cccc(F)c1Cl)C1c2ccc(N3CCCC3)cc2Oc2c(Cl)cccc21` (stereo not drawn) [Example 58, [(2-chloro-3-fluoro-phenyl)-(5-chloro-3-pyrrolidin-1-yl-9H-xanthen-9-yl)methyl]acetate] yielded an IC50 [2] of 11.7 µM.

In the case of `CN1CCN(c2ccc3c(=O)c4cccc(F)c4oc3c2)CC1` [Example 38, 5-fluoro-3-(4-methylpiperazin-1-yl)xanthen-9-one], the IC50 [2] is reported as 16.1 µM.

In the case of `O=c1c2ccc(N3CCCC3)cc2oc2c(F)ccc(Cl)c12` [Example 22, 1-chloro-4-fluoro-6-pyrrolidin-1-ylxanthen-9-one], the IC50 [2] is reported as 0.74 µM.

For `Fc1cccc2c1Oc1cc(N3CCCC3)ccc1C21CCCO1` (stereo not drawn) [Example 52, 1-(5′-fluorospiro[tetrahydrofuran-2,9′-xanthene]-3′-yl)pyrrolidine], the IC50 [2] was 14.5 µM.

`FC(F)(F)C1c2ccc(N3CCCC3)cc2Oc2c(Cl)cccc21` (stereo not drawn) [Example 61, 1-[5-chloro-9-(trifluoromethyl)-9H-xanthen-3-yl]pyrrolidine] showed an IC50 [2] of 31 µM.

`CN(C)C(=O)C1CCN(c2ccc3c(=O)c4cccc(Cl)c4oc3c2)C1` (stereo not drawn) [Example 46, 1-(5-chloro-9-oxo-xanthen-3-yl)-N,N-dimethyl-pyrrolidine-3-carboxamide] was tested, and the IC50 [2] was 4.3 µM.

Work on `O=c1c2ccc(N3CCCC3)nc2oc2c(F)cccc12` [Example 63, 9-fluoro-2-pyrrolidin-1-yl-chromeno[2,3-b]pyridin-5-one] yielded an IC50 [2] of 19.2 µM.

With `CC1c2ccc(N3CCCC3)cc2Oc2c(Cl)cccc21` (stereo not drawn) [Example 54, 1-(5-chloro-9-methyl-9H-xanthen-3-yl)pyrrolidine] the IC50 [2] was 1.6 µM.

Compound `O=c1c2cc(Cl)c(N3CCCC3)cc2oc2c(F)cccc12` [Example 68, 2-chloro-5-fluoro-3-pyrrolidin-1-yl-xanthen-9-one] has an IC50 [2] of 1.18 µM.
